Assay results taken from PubChem BioAssay AID624432 (The Scripps Research Institute Molecular Screening Center, 2012).
The source made the active and inactive calls.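 The calls were made as follows: active = compounds whose fitted IC50 is below 25 µM; inactive = the rest.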

Target: Serine/threonine-protein phosphatase 5 (Homo sapiens) (UniProt P53041)
Test: PP5 inhibitor potency, OMFP cleavage, dose response, biochemical, fluorescence, powder samples, fifth round (AID 624432)
Conditions: purified PP5c, OMFP dephosphorylation

Chain of Serine/threonine-protein phosphatase 5 (Homo sapiens) (P53041 whole entry, looked up): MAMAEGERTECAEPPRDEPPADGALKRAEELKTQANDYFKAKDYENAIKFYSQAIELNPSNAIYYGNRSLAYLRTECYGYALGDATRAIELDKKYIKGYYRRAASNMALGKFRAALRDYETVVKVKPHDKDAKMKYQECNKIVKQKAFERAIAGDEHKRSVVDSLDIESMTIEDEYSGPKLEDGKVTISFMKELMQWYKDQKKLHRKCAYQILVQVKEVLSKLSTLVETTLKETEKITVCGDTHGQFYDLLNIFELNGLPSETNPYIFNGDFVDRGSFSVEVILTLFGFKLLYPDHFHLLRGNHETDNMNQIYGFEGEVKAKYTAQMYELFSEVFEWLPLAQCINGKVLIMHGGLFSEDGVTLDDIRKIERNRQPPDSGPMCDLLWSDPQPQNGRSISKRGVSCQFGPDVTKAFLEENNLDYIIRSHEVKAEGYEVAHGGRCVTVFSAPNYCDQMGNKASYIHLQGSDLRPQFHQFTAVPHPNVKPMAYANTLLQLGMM

IC50	Compound
> 1000 µM (inactive)	O=C(O)c1n[nH]nc1-c1ccccc1C(F)(F)F
inactive	Cc1cccc(C)c1-c1n[nH]nc1C(=O)O
